Measurements from patent publication US20230079448A1, “DEVICES AND METHODS FOR NEGATIVE PRESSURE THERAPY” (APPLIED TISSUE TECHNOLOGIES LLC, priority 2020, published 2023).

Assays:
[1] = Activity of gel-based therapeutics after short-term storage; format: physicochemical; details: 0.5% (agarose) hydrogel
Description: According to Table 1, gel-therapeutic agent preparations comprising an antibiotic and a 0.5% (agarose) hydrogel may be stable for up to one week. Drugs dissolve passively into the gel and stay stable over time. In some embodiments, the gel-therapeutic agent preparation may further comprise saline. The gel may be biocompatible, meaning that it is structurally similar to the extracellular matrix in tissues. The gel may be flowable, allowing, for example, casting into a mold or injection via needle through a port. The loading of the […] agent preparation in the device may allow consistent and uniform contact with the skin even with patient movement, maintaining continuous delivery of the therapeutic agent to the underlying tissue. The gel-therapeutic agent preparation may prevent loss of the therapeutic agent in the event of a minor leak in the adhesive of the sealing portion of the device.

common bacteria = details: typical value; cited from earlier work

Molecule	Drug activity ([1]; after 3 days storage) [µg/mL]	Drug activity ([1]; after 7 days storage) [µg/mL]	MIC (common bacteria)
Gentamicin	2.41	2.04	around 2 micrograms per mL or cm^3
CN[C@H](CC(C)C)C(=O)N[C@H]1C(=O)N[C@@H](CC(N)=O)C(=O)N[C@H]2C(=O)N[C@H]3C(=O)N[C@H](C(=O)N[C@H](C(=O)O)c4cc(O)cc(O)c4-c4cc3ccc4O)[C@H](O)c3ccc(c(Cl)c3)Oc3cc2cc(c3O[C@@H]2O[C@H](CO)[C@@H](O)[C@H](O)[C@H]2O[C@H]2C[C@](C)(N)[C@H](O)[C@H](C)O2)Oc2ccc(cc2Cl)[C@H]1O [vancomycin]	–	–	around 2 micrograms per mL or cm^3
